Measurements from patent US20230073855A1, “SOFT GEL CAPSULE COMPRISING A SELECTIVE ESTROGEN RECEPTOR MODULATOR” (PHARMATHEN S.A., priority 2018, published 2023).
Converted amounts (≈) assume the structure as drawn.

Assays:
[1] = physchem; conditions: oil or lipid, thermodynamic from solid, Dubcare GPE 810 ®/(Tween 80 ®/PEG 600)
Method: (§1) In order to investigate drug solubility in SMEDDS, excess amount of drug was added to few mL of each excipient, placed in small bottles and the mixture was vortexed, in room temperature to facilitate solubilization.
The solubility of Dubcare GPR 810® in different oil/(S/CS) was tested. […] The S/CS ration was kept constant at 1/1.

[2] = physchem; conditions: thermodynamic from solid
Method: The solubility is calculated by the API quantity dissolved in 5 mL of each excipient.

[3] = physchem; conditions: thermodynamic from solid; remark: listed apart in the source
Method: as §1
Tween 80® and Tween 20® were used as surfactants, Transcutol® along with PG 200 and PEG 600 were used as co-surfactants.

[4] = cited from earlier work

OCCOc1ccc(/C(=C(/CCCl)c2ccccc2)c2ccccc2)cc1 [Ospemifene]
solubility ([1]; ratio oil/(S/CS) 1:9, S/CS 1/1): 160 mg/mL
solubility ([1]; ratio oil/(S/CS) 2:8, S/CS 1/1): 150 mg/mL
solubility ([1]; ratio oil/(S/CS) 3:7, S/CS 1/1): 150 mg/mL
solubility ([1]; ratio oil/(S/CS) 7:3, S/CS 1/1): 80 mg/mL
solubility ([1]; ratio oil/(S/CS) 8:2, S/CS 1/1): 60 mg/mL
solubility ([2]; Castor oil #1 (neat excipient), oil or lipid, in Castor oil #1, room temperature): 60 mg/mL (≈ 158 mM)
solubility ([2]; Castor oil #2 (neat excipient), oil or lipid, in Castor oil #2, room temperature): 60 mg/mL (≈ 158 mM)
solubility ([2]; Dubcare GPE 810 (neat excipient), organic solvent or mixture, in Dubcare GPE 810 ®, room temperature): 180 mg/mL (≈ 475 mM)
solubility ([2]; Ethyl Oleate (neat excipient), oil or lipid, in Ethyl Oleate, room temperature): 20 mg/mL (≈ 52.8 mM)
solubility ([2]; Isopropyl myristate (neat excipient), oil or lipid, in Isopropyl myristate, room temperature): 150 mg/mL (≈ 396 mM)
solubility ([2]; Labrafac Lipophile (neat excipient), oil or lipid, in Labrafac Lipophile ®, room temperature): 100 mg/mL (≈ 264 mM)
solubility ([2]; Miglyol 812 (neat excipient), oil or lipid, in Miglyol 812, room temperature): 60 mg/mL (≈ 158 mM)
solubility ([2]; Oleic acid (neat excipient), oil or lipid, in Oleic acid, room temperature): 10 mg/mL (≈ 26.4 mM)
solubility ([2]; Propylene glycol (neat excipient), organic solvent or mixture, in Propylene glycol, room temperature): 50 mg/mL (≈ 132 mM)
solubility ([2]; Sesame oil (neat excipient), oil or lipid, in Sesame oil, room temperature): 60 mg/mL (≈ 158 mM)
solubility ([2]; Transcutol (neat excipient), organic solvent or mixture, in Transcutol ®, room temperature): 280 mg/mL (≈ 739 mM)
solubility ([2]; Tween 20 (neat excipient), organic solvent or mixture, in Tween 20 ®, room temperature): 150 mg/mL (≈ 396 mM)
solubility ([2]; Tween 80 (neat excipient), organic solvent or mixture, in Tween 80 ®, room temperature): 100 mg/mL (≈ 264 mM)
solubility ([2]; Tyloxapol (neat excipient), organic solvent or mixture, in Tyloxapol, room temperature): 140 mg/mL (≈ 369 mM)
solubility ([2]; organic solvent or mixture, in Kolliphpor ® RH40, room temperature): 180 mg/mL (≈ 475 mM)
solubility ([2]; organic solvent or mixture, in PG 200, room temperature): 100 mg/mL (≈ 264 mM)
solubility ([2]; organic solvent or mixture, in PG 600, room temperature): 160 mg/mL (≈ 422 mM)
solubility ([3]; organic solvent or mixture, Tween 20 ®/Transcutol ®, ratio S/CS 1:1): 210 mg/mL
solubility ([3]; organic solvent or mixture, Tween 20 ®/Transcutol ®, ratio S/CS 1:2): 240 mg/mL
solubility ([3]; organic solvent or mixture, Tween 20 ®/Transcutol ®, ratio S/CS 2:1): 190 mg/mL
solubility ([3]; surfactant/co-surfactant mixture Tween 20/PG 200, S/CS 1:1, organic solvent or mixture, Tween 20 ®/PG 200, ratio S/CS 1:1): 110 mg/mL
solubility ([3]; surfactant/co-surfactant mixture Tween 20/PG 200, S/CS 1:2, organic solvent or mixture, Tween 20 ®/PG 200, ratio S/CS 1:2): 120 mg/mL
solubility ([3]; surfactant/co-surfactant mixture Tween 20/PG 200, S/CS 2:1, organic solvent or mixture, Tween 20 ®/PG 200, ratio S/CS 2:1): 120 mg/mL
solubility ([3]; surfactant/co-surfactant mixture Tween 20/PG 600, S/CS 1:1, organic solvent or mixture, Tween 20 ®/PG 600, ratio S/CS 1:1): 140 mg/mL
solubility ([3]; surfactant/co-surfactant mixture Tween 20/PG 600, S/CS 1:2, organic solvent or mixture, Tween 20 ®/PG 600, ratio S/CS 1:2): 140 mg/mL
solubility ([3]; surfactant/co-surfactant mixture Tween 20/PG 600, S/CS 2:1, organic solvent or mixture, Tween 20 ®/PG 600, ratio S/CS 2:1): 140 mg/mL
solubility ([3]; surfactant/co-surfactant mixture Tween 80/PEG 600, S/CS 1:1, organic solvent or mixture, Tween 80 ®/PEG 600, ratio S/CS 1:1): 140 mg/mL
solubility ([3]; surfactant/co-surfactant mixture Tween 80/PEG 600, S/CS 1:2, organic solvent or mixture, Tween 80 ®/PEG 600, ratio S/CS 1:2): 120 mg/mL
solubility ([3]; surfactant/co-surfactant mixture Tween 80/PEG 600, S/CS 2:1, organic solvent or mixture, Tween 80 ®/PEG 600, ratio S/CS 2:1): 140 mg/mL
Time to peak median serum concentration ([4]; fasting postmenopausal women): approximately two
Increase of bioavailability with food intake ([4]; with food intake, EP1713458): two- to three
